From patent US5348970A, “Antifungal compound and compositions containing the compound” (Merck & Co., Inc., priority 1993, dated 1994)
≈ marks a conversion by molar mass, not a printed value.

Assays:
Assay type in all cases: cell-based
Aspergillus fumigatus = assay: Broth dilution MIC, antifungal activity (spore inoculum); settings: 18 h, strain MF 5668
Experimental: (§1) Minimum Inhibitory Concentrations The antifungal activity of the compound of formula 1 was determined using broth dilution assays. The compound was dissolved in DMSO at 3.7 mg/mL and serially diluted in 1% aqueous DMSO. The yeast strains including Candida species and Cryptococcal species were grown to exponential phase in a complex medium composed of 1% peptone, 0.5% yeast extract and 0.05% dextrose (CM) at 29° C. The yeast cells were diluted in CM to A600 =0.004 U/mL which was previously determined to be equal to 3000 colony forming units per milliliter. 180 uL of inoculated CM was added to the wells of a 96 well microtiter dish containing 20 μL of diluted inhibitor samples. The final concentration of the compound in the wells ranged from 37-0.01 μg/ml. The microtiter dishes were incubated for 18 hours at 29° C. and visually inspected for growth. The minimum inhibitory concentration (MIC) was recorded as the lowest concentration of compound to prevent visible growth.
(§2) The same procedure was used to determine the MIC of the compound against the filamentous fungi, Aspergillus fumigatus MF 5668, except a spore inoculum was prepared. Spores of A. fumigatus were obtained by washing a well sporulated slant of the organism growing on potato dextrose agar with 0.05% tween 80 solution. […]

Candida krusei = assay: Broth dilution MIC, antifungal activity; settings: Pichia kudriavzevii; strain MY 2168; 18 hours, 29° C.
Experimental: as §1

Candida albicans = assay: Broth dilution MIC, antifungal activity; settings: strain MY 1055, 18 hours, 29° C.
Experimental: as §1

Candida parapsilosis = assay: Broth dilution MIC, antifungal activity; settings: Lodderomyces parapsilosis; strain MY 1010; 18 hours, 29° C.
Experimental: as §1

Candida tropicalis = assay: Broth dilution MIC, antifungal activity; settings: strain MY 2167, 18 hours, 29° C.
Experimental: as §1

Cryptococcus neoformans = assay: Broth dilution MIC, antifungal activity; settings: 18 h
Experimental: as §1

Staphylococcus aureus = assay: Broth dilution MIC, antibacterial activity; settings: 24 h
Experimental: (§3) The antibacterial activity of the compound was determined using broth dilution assays. The compound was dissolved in DMSO at 10 mg/mL and serially diluted in Luria Broth (LB), composed of […]. The Enterococcal strains were grown in Brain Heart Infusion broth; Staphylococcus aureus (MB2865) was grown in LB; S. aureus (MB108) and (MB2949) and Proteus vulgaris were grown in Nutrient Broth with 2% yeast extract. All bacterial strains were incubated overnight at 37° C. The bacterial cells were diluted 10^-4 in LB to give approximately 5×10^4 to 1×10^5 colony forming units per milliliter. 180 μL of inoculated LB was added to the wells of a 96 well microtiter dish containing 20 μL of diluted inhibitor samples. The final concentration of the compound in the wells ranged from 500-0.00025 μg/ml. The microtiter dishes were incubated for 24 hours at 28° C. and visually inspected for growth. The minimum inhibitory concentration (MIC) was recorded as the lowest concentration of compound to prevent visible growth.

Entercoccus faecium = assay: Broth dilution MIC, antibacterial activity; settings: 24 h
Experimental: as §3

Proteus vulgaris = assay: Broth dilution MIC, antibacterial activity; settings: strain MB 838, 24 hours, 28° C.
Experimental: as §3

fungi = assay: Antifungal activity in vitro (general statement); settings: qualitative statement
Experimental: as §1, §2

bacterial strains = assay: Antibacterial activity in vitro (general statement); settings: qualitative statement
Experimental: as §3

Question: How did the MIC (Aspergillus fumigatus) turn out when `CCCCCCCCCC1OC1/C=C/C(=O)C1(O)C(=O)NC(CO)C1O` (stereo not drawn) [Compound 1] was run?
Answer: Its MIC is 37 µg/mL (≈ 100 µM).

Question: And the MIC (Candida krusei)?
Answer: Its MIC is over 37 µg/mL.

Question: What about the MIC (Candida albicans) of the same compound?
Answer: Its MIC is 7.4 µg/mL (≈ 20 µM).

Question: And the MIC (Candida parapsilosis)?
Answer: Its MIC is 1.5 µg/mL (≈ 4.06 µM).

Question: What about the MIC (Candida tropicalis) of the same compound?
Answer: Its MIC is 7.4 µg/mL (≈ 20 µM).

Question: And the MIC (Cryptococcus neoformans; strain MY 2061, 29° C.)?
Answer: Its MIC is 7.4 µg/mL (≈ 20 µM).

Question: What about the MIC (Cryptococcus neoformans; strain MY 2062, 29° C.) of the same compound?
Answer: Its MIC is 0.02 µg/mL (≈ 0.0541 µM).

Question: And the MIC (Staphylococcus aureus; strain MB 108, 28° C.)?
Answer: The MIC was 0.5 µg/mL (≈ 1.35 µM).

Question: And the MIC (Staphylococcus aureus; strain MB 2865, 28° C.)?
Answer: The MIC was 0.5 µg/mL (≈ 1.35 µM).

Question: And the MIC (Staphylococcus aureus; strain MB 2949, 28° C.)?
Answer: The MIC was 125 to 250 µg/mL (≈ 338 to 677 µM).

Question: What about the MIC (Entercoccus faecium; strain MB 5571, 28° C.) of the same compound?
Answer: Its MIC is 2 µg/mL (≈ 5.41 µM).

Question: What about the MIC (Entercoccus faecium; strain MB 5572, 28° C.) of the same compound?
Answer: The MIC was 1 µg/mL (≈ 2.71 µM).

Question: And the MIC (Proteus vulgaris)?
Answer: Its MIC is over 500 µg/mL.

Question: What about the antifungal activity (fungi) of the same compound?
Answer: Its antifungal activity is “antifungal and antibacterial activity”.

Question: What about the antibacterial activity (bacterial strains) of the same compound?
Answer: The antibacterial activity was “antifungal and antibacterial activity”.
